# Test: Release from loaded diatomaceous earth measured by Nano Drop spectrophotometer
# Type: physicochemical
# Conditions: for start of release after loading / time of peak release: release pattern measured by NanoDrop
# Procedure: According to embodiments herein, the diatom structure and drug loading capacity can vary for different kind of medicines. For example for anticancer Fluorouracil (5-FU or f5U) a master mix of 50 mg/ml was prepared. 0.8 ml of this master mix was added to 200 ml pure ethanol. 0.6 g diatomaceous earth (diatom cell wall) was added to this mixture and was left to be stirred for 3 hours with 200 rpm. Finally after filtration, diatom cell wall was washed once with methanol. 12 hours later at room temperature diatom cell wall were dried and loaded with Fluorouracil (5-FU or f5U).
# Final concentration of 200 mg/ml of Gallic acid in Methanol/Diatomaceous Earth was prepared. To ensure that none of the Gallic acid was left on the outer surface of nano silicon, it washed by Methanol. After his, its release in water by interval of 2 hours was measured at the wavelength of 270 nm.
# Evaluation of Benomyl fungicide release by nano Drop Spectrophotometer: Material and methods were identically same as Gallic Acid. After measuring all ODs, release calibration curve was drawn. […] With respect to FIG. 5, it is seen that the Benomyl releases after 12 hours of loading and gets to its peak release after 40 hours and the release decreases sharply. This is a kind of controlled release.
# 5-flouracil release pattern by nano Drop Spectrophotometer was evaluated. […] With respect to FIG. 6, it can be seen that the drug 5-Florouracil releases after 8 hours from the loading starts and 16 hours after gets peak release and then fall of gradually. This is a kind of controlled release.
# Progesterone release pattern by nano Drop Spectrophotometer was evaluated.
Compound,"release in water (loaded in Diatomaceous Earth, washed by Methanol)","optical density (ODs) measures (release in water, interval of 2 hours, wavelength 270 nm, loaded in Diatomaceous Earth)",start of release after loading,time of peak release
O=C(O)c1cc(O)c(O)c(O)c1 [Gallic acid],none of the Gallic acid has been released in water,zero,,
CC(=O)[C@H]1CC[C@H]2[C@@H]3CCC4=CC(=O)CC[C@]4(C)[C@H]3CC[C@]12C [Progesterone],,,4 h,28 h
CCCCNC(=O)n1c(NC(=O)OC)nc2ccccc21 [Benomyl],,,12 h,40 h
O=c1[nH]cc(F)c(=O)[nH]1 [fluorouracil],,,8 h,16 h

# From US20130225412A1, “SILICON NANOCARRIER FOR DELIVERY OF DRUG, PESTICIDES AND HERBICIDES , AND FOR WASTE WATER TREATMENT” (priority 2012, published 2013)
